Experimental data from PubChem BioAssay AID248 (DTP/NCI, 2004).
Inconclusive results and toxic doses are left out. No stated cut-off is given here; in the data, active means T/C of 150% or more; inactive means T/C below 125%.

Tested on: L1210 leukemia ip in BDF1 mice, survival T/C
Assay: NCI In Vivo Anticancer Drug Screen. Data for tumor model L1210 Leukemia (intraperitoneal) in B6D2F1 (BDF1) mice
Conditions: endpoint: mean survival time, higher = longer survival
Method in brief: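 Transplanted-tumor mice were given test agent; controls received vehicle only. Survival readings from the two groups were divided (treated over control).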

[1] = dose: 100.0 mg/kg/injection, schedule: Q04DX002 (ip), vehicle: Klucel (hydroxypropylcellulose) (HPC)
[2] = dose: 200.0 mg/kg/injection, schedule: Q04DX002 (ip), vehicle: Klucel (hydroxypropylcellulose) (HPC)
[3] = dose: 75.0 mg/kg/injection, schedule: Q01DX001 (ip), vehicle: carboxymethylcellulose (CMC)
[4] = dose: 150.0 mg/kg/injection, schedule: Q01DX001 (ip), vehicle: carboxymethylcellulose (CMC)
[5] = dose: 100.0 mg/kg/injection, schedule: Q01DX001 (ip), vehicle: saline
[6] = dose: 100.0 mg/kg/injection, schedule: Q04DX003 (ip), vehicle: Klucel (hydroxypropylcellulose) (HPC)
[7] = dose: 100.0 mg/kg/injection, schedule: Q04DX003 (ip), vehicle: saline with Tween-80
[8] = dose: 200.0 mg/kg/injection, schedule: Q01DX001 (ip), vehicle: saline
[9] = dose: 200.0 mg/kg/injection, schedule: Q04DX003 (ip), vehicle: Klucel (hydroxypropylcellulose) (HPC)
[10] = dose: 200.0 mg/kg/injection, schedule: Q04DX003 (ip), vehicle: saline with Tween-80
[11] = dose: 400.0 mg/kg/injection, schedule: Q01DX001 (ip), vehicle: saline
[12] = dose: 400.0 mg/kg/injection, schedule: Q04DX003 (ip), vehicle: Klucel (hydroxypropylcellulose) (HPC)
[13] = dose: 400.0 mg/kg/injection, schedule: Q04DX003 (ip), vehicle: saline with Tween-80
[14] = dose: 400.0 mg/kg/injection, schedule: Q04DX002 (ip), vehicle: Klucel (hydroxypropylcellulose) (HPC)
[15] = dose: 100.0 mg/kg/injection, schedule: Q01DX009 (ip), vehicle: saline
[16] = dose: 200.0 mg/kg/injection, schedule: Q01DX009 (ip), vehicle: saline
[17] = dose: 25.0 mg/kg/injection, schedule: Q01DX009 (ip), vehicle: Klucel (hydroxypropylcellulose) (HPC)
[18] = dose: 50.0 mg/kg/injection, schedule: Q01DX009 (ip), vehicle: Klucel (hydroxypropylcellulose) (HPC)
[19] = dose: 100.0 mg/kg/injection, schedule: Q01DX001 (ip), vehicle: Klucel (hydroxypropylcellulose) (HPC)
[20] = dose: 100.0 mg/kg/injection, schedule: Q01DX009 (ip), vehicle: Klucel (hydroxypropylcellulose) (HPC)
[21] = dose: 75.0 mg/kg/injection, schedule: Q01DX001 (ip), vehicle: saline
[22] = dose: 150.0 mg/kg/injection, schedule: Q01DX001 (ip), vehicle: saline

Measured: T/C

CS(=O)(=O)C(=Cc1ccccc1Cl)S(C)(=O)=O
inactive: dose: 100.0 mg/kg/injection, schedule: Q01DX009 (ip), vehicle: saline with Tween-80 92 % of control | dose: 200.0 mg/kg/injection, schedule: Q01DX009 (ip), vehicle: saline with Tween-80 100 % of control | dose: 400.0 mg/kg/injection, schedule: Q01DX009 (ip), vehicle: saline with Tween-80 101 % of control

CC(C)=NOS(=O)(=O)c1ccc(C)cc1
inactive: dose: 75.0 mg/kg/injection, schedule: Q01DX009 (ip), vehicle: saline 103 % of control | dose: 75.0 mg/kg/injection, schedule: Q04DX003 (ip), vehicle: saline 88 % of control | dose: 150.0 mg/kg/injection, schedule: Q01DX009 (ip), vehicle: saline 98 % of control | dose: 150.0 mg/kg/injection, schedule: Q04DX003 (ip), vehicle: saline 92 % of control | dose: 300.0 mg/kg/injection, schedule: Q01DX009 (ip), vehicle: saline 101 % of control | dose: 300.0 mg/kg/injection, schedule: Q04DX003 (ip), vehicle: saline 88 % of control

O=C(NN1C(=O)c2cccc3cccc(c23)C1=O)NN1C(=O)c2cccc3cccc(c23)C1=O
inactive: [1] 92 % of control | [2] 92 % of control

CN1CCC(CO)(c2ccccc2)C1 (configuration not stated)
inactive: [3] 96 % of control | [4] 98 % of control

O=C(O)c1cccnc1Cl
inactive: dose: 50.0 mg/kg/injection, schedule: Q01DX001 (ip), vehicle: saline 96 % of control | [5] 93 % of control | [6] 96 % of control | [7] 105 % of control | [8] 100 % of control | [9] 97 % of control | [10] 105 % of control | [11] 106 % of control | [12] 91 % of control | [13] 106 % of control

COc1ccc(C(SCC(NC(=O)OCc2ccccc2)C(=O)O)c2ccc(OC)cc2)cc1 (configuration not stated)
inactive: [3] 91 % of control | [4] 91 % of control | dose: 300.0 mg/kg/injection, schedule: Q01DX001 (ip), vehicle: carboxymethylcellulose (CMC) 89 % of control

CN(CCNC(=O)c1ccc(Cl)cc1)c1ccccc1
inactive: [1] 96 % of control | [2] 96 % of control | [14] 86 % of control

NS(=O)(=O)c1ccc(N=Nc2ccc(O)c3ncccc23)cc1
inactive: [5] 101 % of control | [8] 98 % of control | [11] 98 % of control

CC(C1CCCC1)C1CCCC1
inactive: dose: 100.0 mg/kg/injection, schedule: Q04DX002 (ip), vehicle: saline with Tween-80 96 % of control | dose: 200.0 mg/kg/injection, schedule: Q04DX002 (ip), vehicle: saline with Tween-80 90 % of control | dose: 400.0 mg/kg/injection, schedule: Q04DX002 (ip), vehicle: saline with Tween-80 109 % of control

Cc1nc(N)[nH]c(=O)c1NC(=O)c1ccc(N)cc1
inactive: dose: 12.5 mg/kg/injection, schedule: Q04DX002 (ip), vehicle: saline with Tween-80 101 % of control | dose: 25.0 mg/kg/injection, schedule: Q04DX002 (ip), vehicle: saline with Tween-80 96 % of control | dose: 50.0 mg/kg/injection, schedule: Q04DX002 (ip), vehicle: saline with Tween-80 99 % of control

O=CC(O)C(O)C(O)C(O)CO (configuration not stated)
inactive: [15] 98 % of control | [16] 96 % of control | dose: 400.0 mg/kg/injection, schedule: Q01DX009 (ip), vehicle: saline 107 % of control | dose: 800.0 mg/kg/injection, schedule: Q01DX009 (ip), vehicle: saline 98 % of control

C=C[CH2][Sn]([Br])([Br])[Br]
inactive: dose: 50.0 mg/kg/injection, schedule: Q01DX009 (ip), vehicle: saline 115 % of control | [15] 95 % of control | [16] 86 % of control

CCc1cnc(N)nc1N
inactive: [17] 107 % of control | [18] 101 % of control | [19] 107 % of control | [20] 104 % of control

CC(C)Cc1ccccn1
inactive: [17] 96 % of control | [18] 98 % of control | [20] 91 % of control

CSc1ccc(-c2nc3ncnc(N)c3[nH]2)cc1
inactive: dose: 25.0 mg/kg/injection, schedule: Q01DX001 (ip), vehicle: gum acacia 95 % of control | dose: 50.0 mg/kg/injection, schedule: Q01DX001 (ip), vehicle: gum acacia 93 % of control

Nc1ncnc2nc(N=Nc3ccc(S(N)(=O)=O)cc3)[nH]c12
inactive: [6] 108 % of control | [9] 102 % of control | [12] 100 % of control

CC1CC(=O)c2ccccc2N1S(C)(=O)=O (configuration not stated)
inactive: [20] 95 % of control | [6] 102 % of control | dose: 200.0 mg/kg/injection, schedule: Q01DX009 (ip), vehicle: Klucel (hydroxypropylcellulose) (HPC) 95 % of control | [9] 102 % of control | dose: 400.0 mg/kg/injection, schedule: Q01DX009 (ip), vehicle: Klucel (hydroxypropylcellulose) (HPC) 101 % of control | [12] 94 % of control

CCN(C(=O)Nc1ccc(Cl)cc1)c1ccccc1
inactive: [7] 96 % of control | [10] 95 % of control | [13] 86 % of control

c1cc[c]([Pb]([S]c2ncnc3c2nc[n]3[Pb]([c]2ccccc2)([c]2ccccc2)[c]2ccccc2)([c]2ccccc2)[c]2ccccc2)cc1.c1cc[c]([Pb]([S]c2ncnc3nc[nH]c23)([c]2ccccc2)[c]2ccccc2)cc1
inactive: dose: 5.0 mg/kg/injection, schedule: Q01DX001 (ip), vehicle: other 103 % of control | dose: 10.0 mg/kg/injection, schedule: Q01DX001 (ip), vehicle: other 121 % of control

CCCCCCCCCCCCCCCCS(=O)(=O)N/N=C(/c1ccc(N)cc1Cl)N1CCCCC1
inactive: [6] 86 % of control | [9] 94 % of control | [12] 91 % of control

CCCCCCC(C)CCCCCCCCNCCOC(=O)c1ccc(N)cc1 (configuration not stated)
inactive: [21] 102 % of control | [22] 104 % of control

Oc1ccc(C2(CCl)OCCO2)cc1
inactive: dose: 25.0 mg/kg/injection, schedule: Q01DX001 (ip), vehicle: saline with Tween-80 98 % of control | dose: 50.0 mg/kg/injection, schedule: Q01DX001 (ip), vehicle: saline with Tween-80 104 % of control | dose: 100.0 mg/kg/injection, schedule: Q01DX001 (ip), vehicle: saline with Tween-80 107 % of control

C1CC[N-]CC1.Oc1ccccc1C=NCCN=Cc1ccccc1O.[Co]
inactive: dose: 6.25 mg/kg/injection, schedule: Q04DX002 (ip), vehicle: saline with Tween-80 90 % of control

O=C(Nc1cccc(Cl)c1)Nc1cccc(Br)c1
inactive: [1] 96 % of control | [2] 88 % of control | [14] 118 % of control

CCCCCCCCN1N=C(C)CCC1=O
inactive: [5] 101 % of control | [8] 90 % of control | [11] 101 % of control

CCN(CC)CCOCCN(CC)CC
inactive: [21] 98 % of control | [22] 102 % of control

NC(=O)c1[nH]cnc1N1CC[N+](Cc2ccccc2)=N1
inactive: [19] 102 % of control | dose: 200.0 mg/kg/injection, schedule: Q01DX001 (ip), vehicle: Klucel (hydroxypropylcellulose) (HPC) 96 % of control
